According to patent publication US11434242B2, “Dopamine-b-hydroxylase inhibitors” (BIAL-PORTELA & Cª, S.A., priority 2017, dated 2022):
Marks after values point to notes of the source that are not given here.

Target: T1, Dopamine beta hydroxylase (Homo sapiens, UniProt P09172)
T1 construct: 125 μl of plasma; tissue Instituto Português do Sangue Transplantação; host or cells: human plasma from healthy donors
T1 sequence (P09172 40-617 limits assumed): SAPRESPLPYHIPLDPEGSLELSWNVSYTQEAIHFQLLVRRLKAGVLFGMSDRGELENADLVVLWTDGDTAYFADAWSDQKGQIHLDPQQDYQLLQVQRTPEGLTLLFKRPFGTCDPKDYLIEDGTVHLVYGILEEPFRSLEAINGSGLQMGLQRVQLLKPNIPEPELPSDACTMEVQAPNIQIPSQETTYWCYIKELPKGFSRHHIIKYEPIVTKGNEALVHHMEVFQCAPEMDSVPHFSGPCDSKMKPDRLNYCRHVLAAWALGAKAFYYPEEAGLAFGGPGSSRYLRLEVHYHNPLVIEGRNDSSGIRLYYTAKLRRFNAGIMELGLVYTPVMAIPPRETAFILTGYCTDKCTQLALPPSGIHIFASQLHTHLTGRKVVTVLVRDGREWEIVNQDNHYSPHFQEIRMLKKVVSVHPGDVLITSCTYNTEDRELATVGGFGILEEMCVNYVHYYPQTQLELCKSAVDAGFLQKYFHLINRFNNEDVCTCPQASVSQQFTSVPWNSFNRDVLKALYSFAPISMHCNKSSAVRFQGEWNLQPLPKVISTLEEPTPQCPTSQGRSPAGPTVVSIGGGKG
Assay: Dopamine beta hydroxylase activity in human plasma
Assay type: biochemical
Details: for Plasma (1 μM), activity in % of control: inhibitor 1 μM
How it was run: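 Octopamine production from tyramine over 45 min at 37° C, measured photometrically at 330 nm after SCX extraction and periodate oxidation against an octopamine standard curve, indicates plasma DβH activity. Compounds tested at final 10, 100 and 1000 nM in human plasma, pH 5.0 cofactor buffer, 10 min preincubation; results as % of control.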

Structure (SMILES) | Plasma (0.01 μM), activity in % of control (inhibitor 0.01 μM) | Plasma (0.1 μM), activity in % of control (inhibitor 0.1 μM) | Plasma (1 μM), activity in % of control | Plasma (0.01 μM), activity in % of control, re-test (asterisked) (inhibitor 0.01 μM, re-tested under the same experimental conditions, asterisked data believed to be correct) | Plasma (0.1 μM), activity in % of control, re-test (asterisked) (inhibitor 0.1 μM, re-tested under the same experimental conditions, asterisked data believed to be correct)
CN(CCO)CCc1[nH]c(=S)n2c1C[C@H](c1c(F)ccc(Br)c1F)C2 [Example 183, (R)-6-(3-bromo-2,6-difluorophenyl)-1-(2-((2-hydroxyethyl)(methyl)amino)ethyl)-2,5,6,7-tetrahydro-3H-pyrrolo[1,2-c]imidazole-3-thione] | 92.2 % of control | 79.8 % of control |  |  | 
Cn1c(CC(=O)NCC(F)(F)F)c2n(c1=S)C[C@@]1(c3cc(Br)ccc3F)C[C@@H]21 [Example 298, 2-((5aS,6aR)-5a-(5-bromo-2-fluorophenyl)-2-methyl-3-thioxo-2,3,5,5a,6,6a-hexahydrocyclopropa[3,4]pyrrolo[1,2-c]imidazol-1-yl)-N-(2,2,2-trifluoroethyl)acetamide] | 83.5 % of control | 28.2 % of control |  |  | 
N#C/N=C(/NCc1[nH]c(=S)n2c1C[C@@H](c1c(F)ccc(Br)c1F)C2)N1CCCC1 [Example 225, (S,Z)—N-((6-(3-bromo-2,6-difluorophenyl)-3-thioxo-2,5,6,7-tetrahydro-3H-pyrrolo[1,2-c]imidazol-1-yl)methyl)-N′-cyanopyrrolidine-1-carboximidamide] | 65.3 % of control | 12.5 % of control |  |  | 
Cl.Cn1cc(CNCCc2c3n(c(=S)n2C)C[C@@]2(c4cc(Cl)ccc4F)C[C@@H]32)cn1 [Example 346, (5aS,6aR)-5a-(5-chloro-2-fluorophenyl)-2-methyl-1-(2-(((1-methyl-1H-pyrazol-4-yl)methyl)amino)ethyl)-5,5a,6,6a-tetrahydrocyclopropa[3,4]pyrrolo[1,2-c]imidazole-3(2H)-thione Hydrochloride] | 109.6 % of control | 74.9 % of control |  |  | 
Cn1c(CC(=O)N[C@H]2CCOC2)c2n(c1=S)C[C@H](c1c(F)ccc(F)c1F)C2 [Example 417, 2-((S)-2-methyl-3-thioxo-6-(2,3,6-trifluorophenyl)-2,5,6,7-tetrahydro-3H-pyrrolo[1,2-c]imidazol-1-yl)-N—((S)-tetrahydrofuran-3-yl)acetamide] | 87.7 % of control | 60.5 % of control |  |  | 
CCOC(=O)Cc1[nH]c(=S)n2c1C[C@H](c1c(F)ccc(Br)c1F)C2 [Example 60, Ethyl (R)-2-(6-(3-bromo-2,6-difluorophenyl)-3-thioxo-2,5,6,7-tetrahydro-3H-pyrrolo[1,2-c]imidazol-1-yl)acetate] |  | 68.9 % of control | 14.0 % of control |  | 
Cn1c(CC(=O)NC2COC2)c2n(c1=S)C[C@H](c1c(F)ccc(Cl)c1F)C2 [Example 333, (S)-2-(6-(3-chloro-2,6-difluorophenyl)-2-methyl-3-thioxo-2,5,6,7-tetrahydro-3H-pyrrolo[1,2-c]imidazol-1-yl)-N-(oxetan-3-yl)acetamide] | 47.5 % of control | 11.7 % of control |  |  | 
O=C(Cc1[nH]c(=S)n2c1C[C@@H](c1c(F)ccc(Br)c1F)C2)NC1CCCC1=O (stereo partly drawn) [Example 34, 2-((S)-6-(3-bromo-2,6-difluorophenyl)-3-thioxo-3,5,6,7-tetrahydro-2H-pyrrolo[1,2-c]imidazol-1-yl)-N-(2-oxocyclopentyl)acetamide] |  | 10.4 % of control | 0 % of control |  | 
CS(=O)(=O)C1CCN(C(=O)Cc2[nH]c(=S)n3c2C[C@H](c2c(F)ccc(Br)c2F)C3)CC1 [Example 126, (R)-2-(6-(3-bromo-2,6-difluorophenyl)-3-thioxo-2,5,6,7-tetrahydro-3H-pyrrolo[1,2-c]imidazol-1-yl)-1-(4-(methylsulfonyl)piperidin-1-yl)ethan-1-one] | 100.2 % of control | 40.2 % of control |  |  | 
Cn1c(CC(=O)N2CCOCC2)c2n(c1=S)C[C@H](c1cc(F)cc(F)c1)C2 [Example 419, (S)-2-(6-(3,5-difluorophenyl)-2-methyl-3-thioxo-2,5,6,7-tetrahydro-3H-pyrrolo[1,2-c]imidazol-1-yl)-1-morpholinoethan-1-one] | 92.5 % of control | 61.0 % of control |  |  | 
Cl.Fc1cc(F)c(F)c([C@H]2Cc3c(CCN4CCCC4)[nH]c(=S)n3C2)c1F [Example 198, (R)-1-(2-(pyrrolidin-1-yl)ethyl)-6-(2,3,5,6-tetrafluorophenyl)-2,5,6,7-tetrahydro-3H-pyrrolo[1,2-c]imidazole-3-thione Hydrochloride] | 52.2 % of control | 11.1 % of control |  | 84.5* % of control | 99.1* % of control
Cn1c(CC(=O)N[C@@H]2CCCOC2)c2n(c1=S)C[C@H](c1c(F)ccc(Cl)c1F)C2 [Example 327, 2-((S)-6-(3-chloro-2,6-difluorophenyl)-2-methyl-3-thioxo-2,5,6,7-tetrahydro-3H-pyrrolo[1,2-c]imidazol-1-yl)-N—((R)-tetrahydro-2H-pyran-3-yl)acetamide] | 49.9 % of control | 7.0 % of control |  |  | 
Cn1c(CC(=O)N2CCOCC2)c2n(c1=S)C[C@@]1(c3c(F)ccc(Cl)c3F)C[C@@H]21 [Example 421, 2-((5aS,6aR)-5a-(3-chloro-2,6-difluorophenyl)-2-methyl-3-thioxo-2,3,5,5a,6,6a-hexahydrocyclopropa[3,4]pyrrolo[1,2-c]imidazol-1-yl)-1-morpholinoethan-1-one] | 26.1 % of control | 5.8 % of control |  |  | 
CN1CCN(C(=O)Cc2[nH]c(=S)n3c2C[C@H](c2c(F)c(F)cc(F)c2F)C3)CC1 [Example 81, (R)-1-(4-methylpiperazin-1-yl)-2-(6-(2,3,5,6-tetrafluorophenyl)-3-thioxo-2,5,6,7-tetrahydro-3H-pyrrolo[1,2-c]imidazol-1-yl)ethan-1-one] |  | 63.1 % of control | 15.9 % of control |  | 
O=C(Cc1[nH]c(=S)n2c1[C@@H]1C[C@]1(c1cc(Br)ccc1F)C2)N1CCN(c2ccccn2)CC1 [Example 147, 2-((5aS,6aR)-5a-(5-bromo-2-fluorophenyl)-3-thioxo-2,3,5,5a,6,6a-hexahydrocyclopropa[3,4]pyrrolo[1,2-c]imidazol-1-yl)-1-(4-(pyridin-2-yl)piperazin-1-yl)ethan-1-one] |  | 29.0 % of control | 2.4 % of control |  | 
